The structures appear in SMILES notation.

PPT accumulation data for one molecule are collected here from article PMC12775149 (Nature Communications, 2025).

For assay [1], the target named is T1, AtCAT5 (Arabidopsis thaliana, UniProt O64759).
T1 sequence (O64759 1-569): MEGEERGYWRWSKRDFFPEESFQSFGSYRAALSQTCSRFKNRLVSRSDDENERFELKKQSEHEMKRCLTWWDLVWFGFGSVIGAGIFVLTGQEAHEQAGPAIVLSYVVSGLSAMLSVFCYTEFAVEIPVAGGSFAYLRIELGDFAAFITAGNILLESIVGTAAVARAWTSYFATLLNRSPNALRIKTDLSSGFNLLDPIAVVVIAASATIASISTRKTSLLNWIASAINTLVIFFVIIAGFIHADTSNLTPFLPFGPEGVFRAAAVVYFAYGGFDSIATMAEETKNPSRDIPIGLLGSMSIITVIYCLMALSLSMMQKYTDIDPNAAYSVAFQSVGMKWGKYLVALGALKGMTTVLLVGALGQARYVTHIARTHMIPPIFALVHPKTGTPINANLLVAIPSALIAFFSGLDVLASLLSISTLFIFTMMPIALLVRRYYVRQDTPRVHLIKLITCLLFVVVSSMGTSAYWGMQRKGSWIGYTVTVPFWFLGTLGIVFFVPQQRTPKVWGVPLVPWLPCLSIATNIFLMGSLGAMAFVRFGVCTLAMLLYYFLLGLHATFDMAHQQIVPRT
The assay can be described thus: LC-MS/MS of PPT accumulated in overexpressing M. polymorpha versus Tak-1. The conditions noted are these: whole plants, 100 µM PPT (time course at 1 mM PPT up to 48 h).

The target in assay [2] is T2, AtCAT1 (Arabidopsis thaliana, UniProt Q84MA5).
T2 sequence (Q84MA5 2-594): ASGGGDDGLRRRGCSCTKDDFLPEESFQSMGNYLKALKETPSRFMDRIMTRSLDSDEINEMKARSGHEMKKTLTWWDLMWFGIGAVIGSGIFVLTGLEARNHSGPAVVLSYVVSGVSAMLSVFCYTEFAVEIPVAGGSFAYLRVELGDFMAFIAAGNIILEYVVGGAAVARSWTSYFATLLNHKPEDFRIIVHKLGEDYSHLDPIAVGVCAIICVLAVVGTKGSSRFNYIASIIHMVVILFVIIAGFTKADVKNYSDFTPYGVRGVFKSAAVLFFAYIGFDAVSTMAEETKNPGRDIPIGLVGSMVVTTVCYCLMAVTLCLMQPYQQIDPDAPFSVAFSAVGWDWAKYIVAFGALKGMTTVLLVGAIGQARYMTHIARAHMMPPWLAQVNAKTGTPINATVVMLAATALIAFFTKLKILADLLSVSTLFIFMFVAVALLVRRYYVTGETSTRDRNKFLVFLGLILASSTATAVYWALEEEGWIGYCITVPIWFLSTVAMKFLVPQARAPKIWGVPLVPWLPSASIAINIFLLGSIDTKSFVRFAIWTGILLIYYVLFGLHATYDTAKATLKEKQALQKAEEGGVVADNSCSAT
Described as above. The conditions noted are these: whole plants, 100 µM PPT.

With `CP(=O)(O)CC[C@H](N)C(=O)O` [PPT, L-phosphinothricin], the PPT accumulation entry is “Increased PPT contents in both AtCAT1ox and AtCAT5ox lines confirmed the successful mediation” in assay [1]; “Increased PPT contents in both AtCAT1ox and AtCAT5ox lines confirmed the successful mediation” in assay [2].
